Measurements from PubChem BioAssay (NCI).
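Test compounds were applied to cells in 96-well plates for 48 hours at 5 doses. Abbreviation: GI50, concentration required for 50% inhibition of growth. At the TGI there is no net growth.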

Assays:
Test in all cases: growth of human tumour cells (NCI), 48 h
MALME-3M melanoma = test system: MALME-3M melanoma
RPMI-8226 leukemia = test system: RPMI-8226 leukemia
SK-MEL-28 melanoma = test system: SK-MEL-28 melanoma
NCI-H522 lung = test system: NCI-H522 lung
OVCAR-8 ovarian = test system: OVCAR-8 ovarian
KM20L2 colon = test system: KM20L2 colon
786-0 renal = test system: 786-0 renal
SF-539 CNS = test system: SF-539 CNS
NCI-H23 lung = test system: NCI-H23 lung
DLD-1 colon = test system: DLD-1 colon
OVCAR-4 ovarian = test system: OVCAR-4 ovarian
CAKI-1 renal = test system: CAKI-1 renal
UACC-257 melanoma = test system: UACC-257 melanoma
SF-268 CNS = test system: SF-268 CNS
M19-MEL melanoma = test system: M19-MEL melanoma
RXF 393 renal = test system: RXF 393 renal
TK-10 renal = test system: TK-10 renal
U251 CNS = test system: U251 CNS
NCI-H226 lung = test system: NCI-H226 lung
HCT-116 colon = test system: HCT-116 colon
SK-OV-3 ovarian = test system: SK-OV-3 ovarian
OVCAR-3 ovarian = test system: OVCAR-3 ovarian
M14 melanoma = test system: M14 melanoma
HCC-2998 colon = test system: HCC-2998 colon
HL-60(TB) leukemia = test system: HL-60(TB) leukemia
IGROV1 ovarian = test system: IGROV1 ovarian
NCI-H460 lung = test system: NCI-H460 lung
SR leukemia = test system: SR leukemia
CCRF-CEM leukemia = test system: CCRF-CEM leukemia
SW-620 colon = test system: SW-620 colon
SNB-78 CNS = test system: SNB-78 CNS
SN12C renal = test system: SN12C renal
LXFL 529 NSCLC = test system: LXFL 529 NSCLC
OVCAR-5 ovarian = test system: OVCAR-5 ovarian
HOP-62 NSCLC = test system: HOP-62 NSCLC
LOX IMVI melanoma = test system: LOX IMVI melanoma
EKVX NSCLC = test system: EKVX NSCLC
HCT-15 colon = test system: HCT-15 colon
SNB-19 CNS = test system: SNB-19 CNS
HOP-92 NSCLC = test system: HOP-92 NSCLC
KM12 colon = test system: KM12 colon
ACHN renal = test system: ACHN renal
K-562 leukemia = test system: K-562 leukemia
SNB-75 CNS = test system: SNB-75 CNS
DMS 114 small cell lung = test system: DMS 114 small cell lung
HT29 colon = test system: HT29 colon
HOP-18 NSCLC = test system: HOP-18 NSCLC
UO-31 renal = test system: UO-31 renal
SF-295 CNS = test system: SF-295 CNS
SK-MEL-5 melanoma = test system: SK-MEL-5 melanoma
MOLT-4 leukemia = test system: MOLT-4 leukemia
DMS 273 small cell lung = test system: DMS 273 small cell lung
A498 renal = test system: A498 renal
UACC-62 melanoma = test system: UACC-62 melanoma
COLO 205 colon = test system: COLO 205 colon
A549 NSCLC = test system: A549 NSCLC
SK-MEL-2 melanoma = test system: SK-MEL-2 melanoma

CC(C)(C)c1cc2c(OP(c3ccccc3)c3ccccc3)c(c1)Cc1cc(C(C)(C)C)cc(c1OP(c1ccccc1)c1ccccc1)Cc1cc(C(C)(C)C)cc(c1OP(c1ccccc1)c1ccccc1)Cc1cc(C(C)(C)C)cc(c1OP(c1ccccc1)c1ccccc1)C2
GI50 (MALME-3M melanoma): > 50 µM | TGI (MALME-3M melanoma): > 50 µM | GI50 (RPMI-8226 leukemia): 35.9 µM | TGI (RPMI-8226 leukemia): > 50 µM | GI50 (SK-MEL-28 melanoma): > 50 µM | TGI (SK-MEL-28 melanoma): > 50 µM | GI50 (NCI-H522 lung): 44.6 µM | TGI (NCI-H522 lung): > 50 µM | GI50 (OVCAR-8 ovarian): > 50 µM | TGI (OVCAR-8 ovarian): > 50 µM | GI50 (KM20L2 colon): > 50 µM | TGI (KM20L2 colon): > 50 µM | GI50 (786-0 renal): > 50 µM | TGI (786-0 renal): > 50 µM | GI50 (SF-539 CNS): > 50 µM | TGI (SF-539 CNS): > 50 µM | GI50 (NCI-H23 lung): > 50 µM | TGI (NCI-H23 lung): > 50 µM | GI50 (DLD-1 colon): > 50 µM | TGI (DLD-1 colon): > 50 µM | GI50 (OVCAR-4 ovarian): 22 µM | TGI (OVCAR-4 ovarian): > 50 µM | TGI (CAKI-1 renal): > 5 µM | GI50 (UACC-257 melanoma): > 50 µM | TGI (UACC-257 melanoma): > 50 µM | GI50 (SF-268 CNS): > 50 µM | TGI (SF-268 CNS): > 50 µM | GI50 (M19-MEL melanoma): > 50 µM | TGI (M19-MEL melanoma): > 50 µM | TGI (RXF 393 renal): > 50 µM | GI50 (TK-10 renal): > 50 µM | TGI (TK-10 renal): > 50 µM | GI50 (U251 CNS): > 50 µM | TGI (U251 CNS): > 50 µM | GI50 (NCI-H226 lung): > 50 µM | TGI (NCI-H226 lung): > 50 µM | TGI (HCT-116 colon): > 5 µM | GI50 (SK-OV-3 ovarian): > 50 µM | TGI (SK-OV-3 ovarian): > 50 µM | GI50 (OVCAR-3 ovarian): > 50 µM | TGI (OVCAR-3 ovarian): > 50 µM | GI50 (M14 melanoma): > 50 µM | TGI (M14 melanoma): > 50 µM | GI50 (HCC-2998 colon): > 50 µM | TGI (HCC-2998 colon): > 50 µM | GI50 (HL-60(TB) leukemia): > 50 µM | TGI (HL-60(TB) leukemia): > 50 µM | GI50 (IGROV1 ovarian): > 50 µM | TGI (IGROV1 ovarian): > 50 µM | GI50 (NCI-H460 lung): > 50 µM | TGI (NCI-H460 lung): > 50 µM | TGI (SR leukemia): > 5 µM | GI50 (CCRF-CEM leukemia): 44.6 µM | TGI (CCRF-CEM leukemia): > 50 µM | GI50 (SW-620 colon): > 50 µM | TGI (SW-620 colon): > 50 µM | TGI (SNB-78 CNS): > 5 µM | GI50 (SN12C renal): > 50 µM | TGI (SN12C renal): > 50 µM | GI50 (LXFL 529 NSCLC): > 50 µM | TGI (LXFL 529 NSCLC): > 50 µM | GI50 (OVCAR-5 ovarian): > 50 µM | TGI (OVCAR-5 ovarian): > 50 µM | GI50 (HOP-62 NSCLC): > 50 µM | TGI (HOP-62 NSCLC): > 50 µM | GI50 (LOX IMVI melanoma): 22.9 µM | TGI (LOX IMVI melanoma): > 50 µM | GI50 (EKVX NSCLC): > 50 µM | TGI (EKVX NSCLC): > 50 µM | GI50 (HCT-15 colon): > 50 µM | TGI (HCT-15 colon): > 50 µM | GI50 (SNB-19 CNS): > 50 µM | TGI (SNB-19 CNS): > 50 µM | GI50 (HOP-92 NSCLC): > 50 µM | TGI (HOP-92 NSCLC): > 50 µM | GI50 (KM12 colon): > 50 µM | TGI (KM12 colon): > 50 µM | TGI (ACHN renal): > 5 µM | GI50 (K-562 leukemia): > 50 µM | TGI (K-562 leukemia): > 50 µM | GI50 (SNB-75 CNS): > 50 µM | TGI (SNB-75 CNS): > 50 µM | GI50 (DMS 114 small cell lung): > 50 µM | TGI (DMS 114 small cell lung): > 50 µM | GI50 (HT29 colon): 47.8 µM | TGI (HT29 colon): > 50 µM | TGI (HOP-18 NSCLC): > 5 µM | GI50 (UO-31 renal): > 50 µM | TGI (UO-31 renal): > 50 µM | GI50 (SF-295 CNS): > 50 µM | TGI (SF-295 CNS): > 50 µM | GI50 (SK-MEL-5 melanoma): > 50 µM | TGI (SK-MEL-5 melanoma): > 50 µM | TGI (MOLT-4 leukemia): > 5 µM | GI50 (DMS 273 small cell lung): > 50 µM | TGI (DMS 273 small cell lung): > 50 µM | GI50 (A498 renal): > 50 µM | TGI (A498 renal): > 50 µM | GI50 (UACC-62 melanoma): > 50 µM | TGI (UACC-62 melanoma): > 50 µM | GI50 (COLO 205 colon): > 50 µM | TGI (COLO 205 colon): > 50 µM | GI50 (A549 NSCLC): > 50 µM | TGI (A549 NSCLC): > 50 µM | GI50 (SK-MEL-2 melanoma): > 50 µM | TGI (SK-MEL-2 melanoma): > 50 µM
